Our source for the IC50, inhibition and Ki values is publication PMC5109486, “Computational Drug Target Screening through Protein Interaction Profiles” (Scientific Reports, 2016).

Like-named read-outs stand apart in the source and are kept apart here. A value given as a limit tells only on which side of the number the result lay.

One test deals with T1, hCOX-1 (Homo sapiens, UniProt P23219).
T1 construct: using arachidonic acid as substrate for hCOX-1 from human platelet microsomes; from tissue; host or cells: microsomes of human platelets isolated from buffy coats
Kind of test: hCOX-1 activity, TMPD oxidation, human platelet microsomes, arachidonic acid substrate. Type of test: biochemical. The settings on record: for inhibition at 25 µM: read-out: % enzymatic inhibition of hCOX-1 at 25 μM, compounds precipitated at higher concentrations. How it is done: Human platelets were isolated by centrifugation from buffy coats obtained from the Centro de Transfusion de Galicia (Santiago de Compostela, Spain) and prepared as described.
The upper layer obtained in this centrifugation, containing platelet rich plasma, was gently removed and centrifuged at 850 g for 20 min at 4 °C in a centrifuge (J2-MI, Beckman Instruments, Inc., Palo Alto, California, USA). The platelet pellet was recovered, resuspended with washing buffer, and centrifuged again at 850 g for 20 min at 4 °C. To prepare human platelet microsomes, the resultant platelet pellet of the above centrifugation was resuspended in 7 mL of sodium phosphate buffer (10 mM, pH 7.4), sonicated at 50 W for 50 s (5 pulses of 10 s), and centrifuged at 850 g for 20 min at 4 °C in a refrigerated centrifuge. The pellet was discarded and the supernatant was subsequently centrifuged at 10 000 g for 10 min at 4 °C in the same centrifuge. The pellet obtained in this centrifugation was discarded and the supernatant was finally centrifuged at 100 000 g for 1 h at 4 °C in an ultracentrifuge (Beckman Instruments, Inc., Palo Alto, California, USA).
The biological evaluation of the test drugs on hCOX-1 activity (bisdioxygenase and peroxidase reactions) was investigated by measuring their effects on the oxidation of N, N, N’, N’-tetramethyl-p-phenylenediamine (TMPD) to N, N, N’, N’-tetramethyl-p-phenylene-diimine, using arachidonic acid as substrate for hCOX-1 from human platelet microsomes (obtained as described in the above paragraph). The formation of N, N, N’, N’-tetramethyl-p-phenylenediimine (a coloured compound) from N, N, N’, N’-tetramethyl-p-phenylenediamine catalyzed by COX can be detected spectrophotometrically at 600 nm. In this study, hCOX activity was evaluated using a spectrophotometric method. Briefly, 0.1 mL of Tris–HCl buffer (100 mM, pH 8) containing […], […], various concentrations of the test drugs, and appropriate amounts of hCOX-1 (0.08 A600 U/min) were incubated for short periods of time (3–5 min) to avoid a notable loss of COX activity at 37 °C in a flat-bottom 96-well microtest plate (BD Biosciences, Franklin Lakes, NJ, USA) placed in the dark multimode microplate reader chamber. After this incubation period, the reaction was started by adding (final concentration) […] and the formation of N, N,N’,N’-tetramethyl-p-phenylenediimine from TMPD, i.e., the increase in absorbance at 600 nm was measured at 37 °C in a multi-mode microplate reader (Fluostar Optima, BMG Labtech GmbH, Offenburg, Germany) for 25 s, aperiod in which the absorbance increased linearly from the beginning. The specific absorbance (used to obtain the final results) was calculated after subtraction of the background absorbance generated in wells containing a blank solution, i.e., all components except the COX isoform, which were replaced by a Tris–HCl buffer solution.
Control experiments were carried out simultaneously by replacing the test drugs (new compounds and reference inhibitors) with appropriate dilutions of the vehicles. In addition, the possible capacity of the above test drugs to modify the absorbance of the reaction mixture due to non-enzymatic inhibition (e.g., for directly reacting with TMPD) was determined by adding these drugs to solutions containing only TMPD in a Tris–HCl buffer solution.

Test [1] has as its target T2, hMAO-B (Homo sapiens, UniProt P27338).
T2 construct: purchased Sigma-Aldrich; host or cells: insect cells (BTI-TN-5B1-4) infected with recombinant baculovirus; microsomal preparation
T2 sequence (P27338 1-520): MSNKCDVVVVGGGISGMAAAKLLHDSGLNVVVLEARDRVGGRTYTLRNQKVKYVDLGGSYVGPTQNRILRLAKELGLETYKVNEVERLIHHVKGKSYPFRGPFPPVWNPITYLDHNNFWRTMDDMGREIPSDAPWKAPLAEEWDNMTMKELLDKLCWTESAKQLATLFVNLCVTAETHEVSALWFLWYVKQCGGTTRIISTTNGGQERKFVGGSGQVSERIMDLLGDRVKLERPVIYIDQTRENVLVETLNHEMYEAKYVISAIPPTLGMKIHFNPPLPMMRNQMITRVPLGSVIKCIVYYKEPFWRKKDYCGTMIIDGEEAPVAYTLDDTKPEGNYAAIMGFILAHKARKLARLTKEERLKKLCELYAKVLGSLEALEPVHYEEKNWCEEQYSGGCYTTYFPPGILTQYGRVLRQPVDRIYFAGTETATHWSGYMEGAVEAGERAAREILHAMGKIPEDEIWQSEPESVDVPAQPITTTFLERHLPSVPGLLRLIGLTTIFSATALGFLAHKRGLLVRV
Nature of the test: hMAO-B enzymatic inhibition, Amplex Red MAO assay (H2O2 from p-tyramine). The class given is biochemical. An excerpt:
(§1) The biological evaluation on hMAO activity was investigated by measuring effects on the production of hydrogen peroxide (H2O2) from p-tyramine, using the Amplex® Red MAO assay kit and microsomal isoforms prepared from insect cells (BTI-TN-5B1-4) infected with recombinant baculovirus containing cDNA inserts for hMAO-A and hMAO-B. The production of H2O2 catalysed by the MAO isoforms was detected using 10-acetyl-3,7-dihydroxyphenoxazine (Amplex® Red reagent), a non fluorescent and highly sensitive probe that reacts with H2O2 in the presence of horseradish peroxidase to produce a fluorescent product, resorufin.
The selected compounds were dissolved in DMSO (Sigma-Aldrich, Alcobendas, Madrid, Spain) to prepare 10 mM stock solutions, which were kept for storage at −20 °C. Percentage of DMSO used in the experiments was never higher than 1%. Human recombinant MAO isoforms (native enzymes), used in the experiments, were purchased from Sigma-Aldrich (Alcobendas, Madrid, Spain). Test compounds were acquired from Sigma-Aldrich and Vitro S.A. (Madrid, Spain).
After this incubation period, the reaction was started by adding (final concentrations) 200 μM Amplex® Red reagent, 1 U/mL horseradish peroxidase and 1 mMp-tyramine. […] Control experiments were carried out simultaneously by replacing the test drugs (new compounds and reference inhibitor) with appropriate dilutions of the vehicles. In addition, the possible capacity of the above test drugs to modify the fluorescence generated in the reaction mixture due to non-enzymatic inhibition (e.g., for directly reacting with Amplex® Red reagent) was determined by adding these drugs to solutions containing only the Amplex® Red reagent in a sodium phosphate buffer. To determine the kinetic parameters of hMAO (Km and Vmax), the corresponding enzymatic activity was evaluated (under the experimental conditions described above) in the presence of a number (a wide range) of p-tyramine concentrations.
The specific fluorescence emission (used to obtain the final results) was calculated after subtraction of the background activity, which was determined from wells containing all components except the hMAO, which were replaced by a sodium phosphate buffer solution.

The target of the next test is T3, hMAO-A (Homo sapiens, UniProt P21397).
T3 construct: purchased Sigma-Aldrich; host or cells: insect cells (BTI-TN-5B1-4) infected with recombinant baculovirus; microsomal preparation
T3 sequence (P21397 1-527): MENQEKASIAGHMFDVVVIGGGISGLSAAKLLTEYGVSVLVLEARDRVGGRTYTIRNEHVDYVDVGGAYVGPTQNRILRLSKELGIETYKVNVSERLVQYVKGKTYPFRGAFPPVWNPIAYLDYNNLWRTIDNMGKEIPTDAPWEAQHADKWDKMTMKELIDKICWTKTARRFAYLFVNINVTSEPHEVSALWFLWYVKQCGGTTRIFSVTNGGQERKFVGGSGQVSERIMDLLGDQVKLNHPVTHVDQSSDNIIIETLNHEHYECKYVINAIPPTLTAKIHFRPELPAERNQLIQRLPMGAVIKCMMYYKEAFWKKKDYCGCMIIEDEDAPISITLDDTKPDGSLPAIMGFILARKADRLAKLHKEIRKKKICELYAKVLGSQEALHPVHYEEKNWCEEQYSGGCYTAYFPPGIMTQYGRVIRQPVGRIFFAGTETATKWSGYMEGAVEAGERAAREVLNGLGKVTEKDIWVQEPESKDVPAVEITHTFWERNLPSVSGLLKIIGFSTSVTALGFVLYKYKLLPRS
Kind of test: hMAO-A enzymatic inhibition, Amplex Red MAO assay (H2O2 from p-tyramine). The class given is biochemical.
Description: as §1, with “resorufin. […]” for “resorufin.”
After this incubation period, the reaction was started by adding (final concentrations) 200 μM Amplex® Red reagent, 1 U/mL horseradish peroxidase and 1 mMp-tyramine. […] In addition, the possible capacity of the above test drugs to modify the fluorescence generated in the reaction mixture due to non-enzymatic inhibition (e.g., for directly reacting with Amplex® Red reagent) was determined by adding these drugs to solutions containing only the Amplex® Red reagent in a sodium phosphate buffer. To determine the kinetic parameters of hMAO (Km and Vmax), the corresponding enzymatic activity was evaluated (under the experimental conditions described above) in the presence of a number (a wide range) of p-tyramine concentrations. […]

Test [2] concerns hMAO-B. Set-up: method as in PMID 19948168, PMID 14965331. The settings on record: cited from earlier work.
Where [3] appears, read: Table 2, mean ± S.E.M., n = 3, control assays, read-out: IC50 hCOX-1.
[4] abbreviates: Table 3, mean ± S.E.M., n = 3, rational assays selected by the modeling, read-out: IC50 hCOX-1.
The mark [5] stands for this setting: Table 2, mean ± S.E.M., n = 3, rational assays selected by the modeling, read-out: IC50 hMAO-B.
[6] abbreviates: highest concentration tested 100 μM, read-out: IC50 hMAO-B (rounded).
Where [7] appears, read: Table 3, mean ± S.E.M., n = 3, control assays, read-out: IC50 hMAO-B.
Where [8] appears, read: highest concentration tested 100 μM, read-out: IC50 hCOX-1 (rounded).

By IC50 is commonly meant the concentration that gives 50% inhibition. Broadly, the inhibition is the drop in the measured response relative to a control, in per cent. What is called Ki is the equilibrium dissociation constant of an inhibitor or competing ligand from its target.

T1 sequence (P23219 24-599): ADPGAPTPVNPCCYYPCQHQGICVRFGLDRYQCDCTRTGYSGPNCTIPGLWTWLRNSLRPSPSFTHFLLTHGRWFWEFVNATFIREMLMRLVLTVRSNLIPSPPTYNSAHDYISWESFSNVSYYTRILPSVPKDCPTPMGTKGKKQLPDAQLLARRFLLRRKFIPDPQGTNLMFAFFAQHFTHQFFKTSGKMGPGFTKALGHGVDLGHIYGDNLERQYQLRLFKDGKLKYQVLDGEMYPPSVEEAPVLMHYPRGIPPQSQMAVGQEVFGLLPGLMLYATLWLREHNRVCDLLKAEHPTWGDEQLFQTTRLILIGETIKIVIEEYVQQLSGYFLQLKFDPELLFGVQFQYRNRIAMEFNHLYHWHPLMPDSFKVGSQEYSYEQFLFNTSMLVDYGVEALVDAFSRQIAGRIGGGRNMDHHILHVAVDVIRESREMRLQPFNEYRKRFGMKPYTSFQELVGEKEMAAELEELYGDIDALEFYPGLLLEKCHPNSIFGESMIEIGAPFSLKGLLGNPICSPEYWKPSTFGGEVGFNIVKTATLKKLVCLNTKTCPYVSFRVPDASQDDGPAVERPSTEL

`COc1ccc(-c2nc(C(=O)N3CCN(C)CC3)sc2-c2ccc(OC)cc2)cc1` [FR122047]: the IC50 on hCOX-1 (setting [3]) and on hCOX-1 (setting [4]) was 0.094 ± 0.006 µM each time.
Turning to `COc1ccc2nc(NC(=O)Nc3ccccc3)sc2c1` [Frentizole], the IC50 at hMAO-B [1] (setting [5]) is above 100 µM; on hMAO-B [1] (setting [6]), above 100 µM; at hCOX-1 (setting [3]), above 100 µM; on hMAO-A (Table 2, mean ± S.E.M., n = 3, control assays, read-out: IC50 hMAO-A), above 100 µM.
Consider `Cc1cccc(-c2n[nH]cc2-c2ccc3ncccc3n2)n1` [GW786460X], for which the IC50 on hMAO-B [1] (setting [7]), at hCOX-1 (setting [4]) and on hCOX-1 (setting [8]) was above 100 µM each time.
Consider `O=Nc1c(-c2c(O)[nH]c3ccccc23)[nH]c2ccccc12` [Indirubin-3′-monoxime, indirubin-3′-monoxime], for which, at hMAO-B [1] (setting [7]), the IC50 was above 100 µM. Moreover, the inhibition at 25 µM at hCOX-1 came to 28%.
The matching figures for `CS(=O)(=O)CCNCc1ccc(-c2ccc3ncnc(Nc4ccc(OCc5cccc(F)c5)c(Cl)c4)c3c2)o1` [Lapatinib, lapatinib]: above 100 µM and 19.5%.
Consider `COc1cc(/C=C/C(=O)N2CCC=CC2=O)cc(OC)c1OC` [Piperlongumine, piperlongumine], for which the IC50 on hMAO-B [1] (setting [5]) is 65.1 ± 2.99 µM; on hMAO-B [1] (setting [6]), 65 µM; against hCOX-1 it was above 100 µM; on hMAO-A, above 100 µM.
`O=C1NC(=O)C(c2c[nH]c3ccccc23)=C1c1c[nH]c2ccccc12` [RO-316233]: the half-maximal inhibitory concentration (IC50) on hMAO-B [1] (setting [7]) is above 100 µM; on hCOX-1 (setting [4]) it was 25.4 ± 3.8 µM; at hCOX-1 (setting [8]) it was 25 µM.
The matching figures for `Oc1ccc(-c2nc(-c3ccncc3)c(-c3ccc(F)cc3)[nH]2)cc1` [SB-202190]: above 100 µM, 23.6 ± 3.53 µM and 24 µM.
`NS(=O)(=O)Cc1noc2ccccc12` [zonisamide]: the IC50 with hMAO-B [2] (read-out: IC50 of zonisamide (MAO-B)) is around 25 µM. The Ki on hMAO-B [2] (read-out: Ki of zonisamide (MAO-B)) is 3.1 µM.
